The data set is described as follows: Solubility studies in 50/50 alcohol/ethyl lactate blends. The note with it: for Final concentration dissolved (clear, free of particulates): ambient temperature about 20-25 C.

Structures are written as SMILES.

In the case of `Clc1ccccc1C(c1ccccc1)(c1ccccc1)n1ccnc1` [clotrimazole, Clotrimazole], the Solubility entry is on record as “greater than 10 % w/w” (ethanol/ethyl lactate 50/50 blend (conclusion)) and “greater than 10 % w/w” (isopropanol/ethyl lactate 50/50 blend (conclusion)). Besides, the “Final concentration dissolved (clear, free of particulates)” value is, setting by setting: (ethyl alcohol/ethyl lactate blend 50/50 w/w) 10.31%; (isopropyl alcohol/ethyl lactate blend 50/50 w/w) 10.07%.
